Measured values reported in patent US20160046618A1, “Cyclopropyl Fused Thiazin-2-Amine Compounds as Beta-Secretase Inhibitors and Methods of Use” (AMGEN INC., priority 2014, published 2016).
Where two headings read alike, the source gives them in different places.

Assays:
Aβ 40 in rat CSF = assay: In vivo inhibition of beta-secretase: Aβ40 reduction in rat CSF; settings: 10 mpk, after 4 h
Outline: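 Male Sprague Dawley rats (200 g) dosed orally in 2% HPMC, 1% Tween80, pH 2.2, at 3, 10 or 30 mg/kg; CSF and brain taken 4 h later. Brain homogenate centrifuged at 355,000 g; Aβ40 measured by ECL sandwich ELISA (4G8 capture, Abeta40 C-terminal Fab detection), as % reduction versus vehicle controls.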

human recombinant BACE2 = human recombinant BACE2 (Homo sapiens (Human), UniProt Q9Y5Z0); assay: In vitro enzymatic BACE2 FRET assay; type: biochemical; settings: read-out: IC50 IP (μM) BACE2 enzyme
Chain of human recombinant BACE2 (Q9Y5Z0 63-518): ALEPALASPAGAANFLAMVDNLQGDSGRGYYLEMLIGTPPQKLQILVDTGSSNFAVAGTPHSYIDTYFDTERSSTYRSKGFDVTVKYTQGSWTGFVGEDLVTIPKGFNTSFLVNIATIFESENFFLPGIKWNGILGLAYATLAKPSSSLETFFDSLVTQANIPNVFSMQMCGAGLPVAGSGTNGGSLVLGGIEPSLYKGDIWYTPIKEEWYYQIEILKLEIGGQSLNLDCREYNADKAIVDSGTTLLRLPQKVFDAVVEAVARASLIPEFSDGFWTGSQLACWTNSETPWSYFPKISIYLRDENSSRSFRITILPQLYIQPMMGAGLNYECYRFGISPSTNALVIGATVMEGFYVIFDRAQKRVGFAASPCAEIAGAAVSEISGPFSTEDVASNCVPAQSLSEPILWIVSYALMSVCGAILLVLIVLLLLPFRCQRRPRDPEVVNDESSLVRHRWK
Outline: (§1)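 Read-out: dequenched fluorescence, excitation 488 nm, emission 590 nm, after proteolysis of a quenched peptide spanning the BACE cleavage site. Substrate at 50 nM, 1 h incubation, termination by Tris addition to neutral pH.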

Aβ 40 in rat brain = assay: In vivo inhibition of beta-secretase: Aβ40 reduction in rat brain; settings: 10 mpk, after 4 h
Outline: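 Rats were dosed by oral gavage at up to 100 mg/kg in 2% HPMC, 1% Tween80, pH 2.2, with vehicle-only controls. Supernatant Aβ40 was measured by ECL sandwich ELISA with biotinylated-4G8 capture and C-terminal Fab40 detection.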

human recombinant BACE1 = human recombinant BACE1 (Homo sapiens (Human), UniProt P56817); assay: In vitro enzymatic BACE1 FRET assay; type: biochemical; settings: read-out: IC50 IP (μM) BACE1 enzyme
Chain of human recombinant BACE1 (P56817 46-501): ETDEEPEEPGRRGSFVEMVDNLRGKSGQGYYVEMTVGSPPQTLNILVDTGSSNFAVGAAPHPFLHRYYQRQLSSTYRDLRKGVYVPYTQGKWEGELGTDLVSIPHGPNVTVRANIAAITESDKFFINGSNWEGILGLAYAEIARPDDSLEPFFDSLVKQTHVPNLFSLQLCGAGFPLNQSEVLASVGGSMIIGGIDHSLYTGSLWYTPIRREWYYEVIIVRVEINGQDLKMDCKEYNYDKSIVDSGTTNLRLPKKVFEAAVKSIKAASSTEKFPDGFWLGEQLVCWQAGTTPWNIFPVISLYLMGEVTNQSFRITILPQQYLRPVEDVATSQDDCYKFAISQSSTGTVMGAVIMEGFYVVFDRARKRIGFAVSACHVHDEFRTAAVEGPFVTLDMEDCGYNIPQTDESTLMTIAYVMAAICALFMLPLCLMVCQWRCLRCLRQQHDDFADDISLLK
Outline: as §1

Recombinant Cat D = Recombinant Cat D (Homo sapiens (Human), UniProt P07339); assay: In vitro enzymatic Cathepsin D (Cat D) FRET assay; type: biochemical; settings: read-out: IC50 IP (μM) CatD
Chain of Recombinant Cat D (P07339 65-412): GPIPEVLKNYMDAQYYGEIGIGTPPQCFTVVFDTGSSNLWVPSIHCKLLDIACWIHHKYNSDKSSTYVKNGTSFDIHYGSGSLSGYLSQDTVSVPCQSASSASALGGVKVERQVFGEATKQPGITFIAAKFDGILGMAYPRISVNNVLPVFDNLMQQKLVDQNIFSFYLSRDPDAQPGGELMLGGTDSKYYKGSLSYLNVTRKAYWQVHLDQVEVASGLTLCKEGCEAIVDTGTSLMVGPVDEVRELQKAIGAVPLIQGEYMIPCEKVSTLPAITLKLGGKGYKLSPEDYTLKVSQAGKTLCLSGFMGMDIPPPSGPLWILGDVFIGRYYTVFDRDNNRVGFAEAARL
Outline: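 Fluorescence at 500 nm excitation and 580 nm emission reports cleavage of a quenched fluorophore–quencher peptide (20 nM) by CHO-expressed Cat D. Reactions ran one hour in 0.05 M citrate pH 3.5, 5 mM CHAPS, 10% DMSO final before a Tris stop raised pH to neutrality.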

[1] = tested on: Aβ40 in conditioned medium of cells stably expressing Amyloid Precursor Protein (APP); assay: In vitro BACE-1 cell-based assay (Aβ40 sandwich ELISA); settings: read-out: IC50 IP (μM) BACE1 cell
Outline: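 Read-out: time-resolved fluorescence (Streptavidin-Europium) of Aβ40 captured by pAb40 and detected with biotinylated 6E10 from supernatants of APP-stable cells. Cells were exposed to compound for 24 h, 10-point dose response, top dose 100 μM or 10 μM, 0.1% DMSO. IC50 fitted to percent of control.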

Aβ in lumbar CSF = settings: oral dosing of 30 or 90 mg; cited from earlier work
[2] = healthy volunteers; cited from earlier work
[3] = tested on: pigment epithelium of the rat's eye; settings: higher compound dose given for three months; cited from earlier work
[4] = cited from earlier work
CSF Aβ40 = settings: healthy individuals, 36 h post-dose, cited from earlier work
[5] = phase 1, healthy individuals; cited from earlier work

C#C[C@H](C)Oc1cnc2c(Nc3cc(F)c(F)c([C@@]4(C)N=C(N)S[C@@]5(C#N)C[C@H]54)c3)nccc2n1 [Example 931, (1S,5S,6S)-3-amino-5-(2,3-difluoro-5-((2-(((1S)-1-methyl-2-propyn-1-yl)oxy)pyrido[3,4-b]pyrazin-5-yl)amino)phenyl)-5-methyl-2-thia-4-azabicyclo[4.1.0]hept-3-ene-1-carbonitrile]
% Aβ 40 reduction in rat CSF at 10 mpk (Aβ 40 in rat CSF): 8% | IC50 (human recombinant BACE2): 0.0551 µM | % Aβ 40 reduction in rat brain at 10 mpk (Aβ 40 in rat brain): 3% | IC50 (human recombinant BACE1): 0.000902 µM | IC50 (Recombinant Cat D): 633 µM | IC50 [1]: 0.0386 µM

C#CCOc1cnc2c(Nc3ccc(F)c([C@@]4(CF)N=C(N)S[C@H]5C[C@H]54)c3)ncnc2c1 [Example 941, N-(3-((1S,5S,6S)-3-amino-5-(fluoromethyl)-2-thia-4-azabicyclo[4.1.0]hept-3-en-5-yl)-4-fluorophenyl)-7 (2-propyn-1-yloxy)pyrido[3,2-d]pyrimidin-4-amine]
% Aβ 40 reduction in rat CSF at 10 mpk (Aβ 40 in rat CSF): 41% | IC50 (human recombinant BACE2): 0.2 µM | % Aβ 40 reduction in rat brain at 10 mpk (Aβ 40 in rat brain): 2% | IC50 (human recombinant BACE1): 0.00962 µM | IC50 (Recombinant Cat D): 780 µM | IC50 [1]: 0.0129 µM

C#CCOc1cnc2c(Nc3cc(F)c(F)c([C@@]4(C)N=C(N)S[C@@]5(C(F)F)C[C@@H]45)c3)ncnc2c1 [Example 945, N-(3-((1S,5S,6S)-3-amino-1-(difluoromethyl)-5-methyl-2-thia-4-azabicyclo[4.1.0]hept-3-en-5-yl)-4,5-difluorophenyl)-7-(2-propyn-1-yloxy)pyrido[3,2-d]pyrimidin-4-amine]
% Aβ 40 reduction in rat CSF at 10 mpk (Aβ 40 in rat CSF): 68% | IC50 (human recombinant BACE2): 0.0661 µM | % Aβ 40 reduction in rat brain at 10 mpk (Aβ 40 in rat brain): 55% | IC50 (human recombinant BACE1): 0.00105 µM | IC50 (Recombinant Cat D): 381 µM | IC50 [1]: 0.00709 µM

C#C[C@H](C)Oc1cnc(C(=O)Nc2ccc(F)c([C@@]3(C)N=C(N)S[C@@]4(COC)C[C@H]43)c2)cn1 [Example 965, N-(3-((1S,5S,6S)-3-amino-1-(methoxymethyl)-5-methyl-2-thia-4-azabicyclo[4.1.0]hept-3-en-5-yl)-4-fluorophenyl)-5-(((1S)-1-methyl-2-propyn-1-yl)oxy)-2-pyrazinecarboxamide]
% Aβ 40 reduction in rat CSF at 10 mpk (Aβ 40 in rat CSF): 33% | IC50 (human recombinant BACE2): 0.0638 µM | % Aβ 40 reduction in rat brain at 10 mpk (Aβ 40 in rat brain): 20% | IC50 (human recombinant BACE1): 0.000618 µM | IC50 (Recombinant Cat D): > 400 µM | IC50 [1]: 0.00287 µM

C#C[C@H](C)Oc1cnc(C(=O)Nc2ccc(F)c([C@@]3(C)N=C(N)S[C@@]4(C(F)F)C[C@@H]34)c2)cn1 [Example 966, N-(3-((1S,5S,6S)-3-amino-1-(difluoromethyl)-5-methyl-2-thia-4-azabicyclo[4.1.0]hept-3-en-5-yl)-4-fluorophenyl)-5-(((1S)-1-methyl-2-propyn-1-yl)oxy)-2-pyrazinecarboxamide]
% Aβ 40 reduction in rat CSF at 10 mpk (Aβ 40 in rat CSF): 67% | IC50 (human recombinant BACE2): 0.0419 µM | % Aβ 40 reduction in rat brain at 10 mpk (Aβ 40 in rat brain): 68% | IC50 (human recombinant BACE1): 0.000385 µM | IC50 (Recombinant Cat D): 735 µM | IC50 [1]: 0.00182 µM

CC(C)NC(=O)[C@]12C[C@H]1[C@@](C)(c1cc(NC(=O)c3cnc(OCC(F)(F)F)cn3)ccc1F)N=C(N)S2 [Example 976, (1S,5S,6S)-3-amino-5-(2-fluoro-5-(5-(2,2,2-trifluoroethoxy)pyrazine-2-carboxamido)phenyl)-N-isopropyl-5-methyl-2-thia-4-azabicyclo[4.1.0]hept-3-ene-1-carboxamide]
% Aβ 40 reduction in rat CSF at 10 mpk (Aβ 40 in rat CSF): 36% | IC50 (human recombinant BACE2): 0.268 µM | % Aβ 40 reduction in rat brain at 10 mpk (Aβ 40 in rat brain): 16% | IC50 (human recombinant BACE1): 0.000527 µM | IC50 (Recombinant Cat D): 260 µM | IC50 [1]: 0.0101 µM

COC[C@]12C[C@H]1[C@@](C)(c1cc(NC(=O)c3cnc(OCC4CC4)cn3)cc(F)c1F)N=C(N)S2 [Example 1021, N-(3-((1S,5S,6S)-3-amino-1-(methoxymethyl)-5-methyl-2-thia-4-azabicyclo[4.1.0]hept-3-en-5-yl)-4,5-difluorophenyl)-5-(cyclopropylmethoxy)-2-pyrazinecarboxamide]
% Aβ 40 reduction in rat CSF at 10 mpk (Aβ 40 in rat CSF): 44% | IC50 (human recombinant BACE2): 0.0808 µM | % Aβ 40 reduction in rat brain at 10 mpk (Aβ 40 in rat brain): 25% | IC50 (human recombinant BACE1): 0.000918 µM | IC50 (Recombinant Cat D): 776 µM | IC50 [1]: 0.0116 µM

Cc1noc(COc2cnc(C(=O)Nc3ccc(F)c([C@@]4(C)N=C(N)S[C@@]5(C(F)F)C[C@@H]45)c3)cn2)n1 [Example 1039, N-(3-((1S,5S,6S)-3-amino-1-(difluoromethyl)-5-methyl-2-thia-4-azabicyclo[4.1.0]hept-3-en-5-yl)-4-fluorophenyl)-5-((3-methyl-1,2,4-oxadiazol-5-yl)metnoxy)-2-pyrazinecarboxamide]
% Aβ 40 reduction in rat CSF at 10 mpk (Aβ 40 in rat CSF): 13% | IC50 (human recombinant BACE2): 0.171 µM | % Aβ 40 reduction in rat brain at 10 mpk (Aβ 40 in rat brain): 16% | IC50 (human recombinant BACE1): 0.000941 µM | IC50 (Recombinant Cat D): 725 µM | IC50 [1]: 0.00251 µM

C[C@@]1(c2cc(-c3cncnc3)c(F)cc2F)CCSC(N)=N1 [LY2811376, (S)-4-(2,4-difluoro-5-pyrimidin-5-yl-phenyl)-4-methyl-5,6-dihydro-4H-[1,3]thiazin-2-ylamine]
Aβ reductions in lumbar CSF (Aβ in lumbar CSF): Prominent and long-lasting Aβ reductions | safety and tolerability [2]: safe and well tolerated

C[C@@]1(c2cc(-c3cncnc3)c(F)cc2F)CCSC(N)=N1 [LY 2811376]
retinal toxicity finding in rat toxicology studies [3]: damaged the pigment epithelium of the rat's eye | eye assessments of people from the Ph I dosing trial [4]: did not show any abnormalities

CN1C(=N)N[C@](C)(c2cc(NC(=O)c3ccc(F)cn3)ccc2F)CS1(=O)=O [MK-8931]
reduction of CSF Aβ40 concentrations (CSF Aβ40; single dose of 100 mg): 75% | reduction of CSF Aβ40 concentrations (CSF Aβ40; single dose of 550 mg): 92% | tolerability [5]: generally well tolerated
